Here are results for two compounds from patent US20220089646A1 (THE UNIVERSITY OF QUEENSLAND, priority 2019, published 2022).

*1 amine or outer side, *2 acyl side, *3 side chain or, on linkers, in order; H or OH if unused. Where a SMILES comes first, the peptide text is derived from it. Bridges are numbered along the chain shown (N, C = ends). [ ]: non-standard residue; d: D form. NHCH2CMe2S = CC(C)(CN[*:1])S[*:2]

In one data set the target is DOP (Homo sapiens, UniProt P41143). Put plainly: In vitro cAMP activity at DOP (Table 10). Format: cell-based. To be noted: cAMP inhibition, four-parameter regression. The method, then: The CP series compounds were assayed as follows: The assay was performed using a 96 well ½ area plate. The different cAMP standard solutions (3 μL/well) were plated in duplicate. The different concentrations of drug (3 μL/well), and control solutions (3 μL/well) were plated in triplicate. Following this, the acceptor bead mixture (3 μL/well) was added to the respective sets—either cAMP standard curve or the treatment. This was covered and incubated on the orbital shaker for 60 minutes at 37° C. Then, the donor bead mixture (10 μL/well) was added to each well. This was incubated at room temperature overnight on the orbital shaker.
Chain of DOP (P41143 whole entry): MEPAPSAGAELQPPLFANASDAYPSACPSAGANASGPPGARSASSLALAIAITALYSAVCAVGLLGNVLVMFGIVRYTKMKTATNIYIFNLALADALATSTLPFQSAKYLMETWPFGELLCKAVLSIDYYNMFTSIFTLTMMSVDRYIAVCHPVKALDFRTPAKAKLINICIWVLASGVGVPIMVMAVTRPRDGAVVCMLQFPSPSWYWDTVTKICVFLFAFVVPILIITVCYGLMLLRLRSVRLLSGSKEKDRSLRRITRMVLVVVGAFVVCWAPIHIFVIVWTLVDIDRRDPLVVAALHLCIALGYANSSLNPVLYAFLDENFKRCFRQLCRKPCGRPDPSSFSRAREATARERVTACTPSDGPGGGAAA
For DP-11-06 the assay was carried out in the same way as for the CP compounds except it was incubated for 30 mins at 37° C.
For the CP series compounds and DP-11-06, the Ensight® Multimode Plate Reader was used to quantify the fluorescence units of each plate. Before reading, each plate was centrifuged at 280 g for 30 seconds. Using GraphPad Prism7® Software, cAMP concentrations were determined by fit spline/LOWESS analysis. The cAMP standard curve was used for interpolation at this point. The cAMP concentrations were then normalized to the highest cAMP concentration recorded and analyzed by one-way ANOVA for multiple comparisons. The IC50 for each compound was then calculated using GraphPad Prism7® with non-linear regression analysis using four parameter curve fitting.
In this regard, a different regression analysis method was adopted on the above cAMP experiments. Particularly, a new non-linear regression (four-parameter) was adopted to better account for hill slope, thereby improving the regression fit.

For data set [1], the target named is T1, bovine pancreatic trypsin (Bos taurus, UniProt P00760).
T1 construct: from tissue; host or cells: bovine pancreas
T1 sequence (P00760 24-246): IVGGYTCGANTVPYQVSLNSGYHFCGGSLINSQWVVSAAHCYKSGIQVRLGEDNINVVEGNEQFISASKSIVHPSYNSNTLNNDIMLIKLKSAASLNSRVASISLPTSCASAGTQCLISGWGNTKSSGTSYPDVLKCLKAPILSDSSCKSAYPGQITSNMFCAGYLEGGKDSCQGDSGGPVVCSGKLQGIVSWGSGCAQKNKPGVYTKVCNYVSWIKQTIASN
The data set can be described thus: Trypsin stability assay (Table 10). Type of data set: in vitro ADME. The following applies: bovine pancreatic trypsin solution; bovine pancreatic trypsin 2.5 μg/mL, 37° C., One Phase Decay; read-out: Stability (t1/2, mins) Trypsin. The text has this:
(§1) FIG. 20 is a series of graphs showing the stability of selected peptides in a trypsin (left-hand graphs) and plasma (right-hand graphs) stability assay (data normalised to concentration of each peptide at t=0, determined by LCMS, within each substrate; data analysed using One Phase Decay nonlinear regression in Prism software and each experiment performed in triplicate; mean+/−SEM);
Plasma was collected in house from adult mixed-gender Wistar rats, prepared using 2% EDTA as per standard practice. Peptides were added to rat plasma samples at 37° C. (in a water bath) with final concentrations of 100 uM (1:9 peptide in water:plasma) and a 50 μL sample was immediately taken and precipitated in 150 μL cold acetonitrile (9:1 ACN:water). This sample became the baseline, or t=0 min sample. […] At each time point, the 50 μL of plasma collected was immediately added to cold ACN. Each collected plasma sample in ACN was directly vortexed for 30 seconds and then centrifuged at room temperature (13K rpm, 5 min). 150 μL of the supernatant was taken and directly placed in glass HPLC vials for LCMS analysis.
The protocol for the trypsin stability assay was very similar to the plasma stability assay discussed above. The only difference was the use of a trypsin solution (bovine pancreatic trypsin 2.5 μg/mL in NH4HCO3 buffer, pH approx. 8-8.5, 37° C.) instead of rat plasma. Volumes, times and preparation protocols were exactly as mentioned above.

The nature of data set [2]: Plasma stability assay (Table 10). Format: in vitro ADME. The following applies: both sexes, Wistar, rat plasma (EDTA), 37° C., 100 uM peptide, One Phase Decay, read-out: Stability (t1/2, mins) Plasma.
From the text: as §1
The results shown in Table 10 utilized rat plasma. • Note that DP-7-11 and CP5 represent the same compound, and DP-7-12 and CP6 are the same compound. In this regard, a different regression analysis method was adopted on the above cAMP experiments. Particularly, a new non-linear regression (four-parameter) was adopted to better account for hill slope, thereby improving the regression fit.
Plasma was collected in house from adult mixed-gender Wistar rats, prepared using 2% EDTA as per standard practice. Peptides were added to rat plasma samples at 37° C. (in a water bath) with final concentrations of 100 uM (1:9 peptide in water:plasma) and a 50 μL sample was immediately taken and precipitated in 150 μL cold acetonitrile (9:1 ACN:water). This sample became the baseline, or t=0 min sample. Plasma with peptide was immediately returned to the water bath and subsequent 50 μL samples were taken at 5, 10, 15, 30, 60 and 120 min. At each time point, the 50 μL of plasma collected was immediately added to cold ACN. Each collected plasma sample in ACN was directly vortexed for 30 seconds and then centrifuged at room temperature (13K rpm, 5 min). 150 μL of the supernatant was taken and directly placed in glass HPLC vials for LCMS analysis.

A further data set addresses KOP (Homo sapiens, UniProt P41145). The data set can be described thus: Statistics for each peptide | IC50 (nM). The procedure:
Table printed on a drawing sheet, FIG 12
Head of the field: Statistics for each peptide | IC50 (nM)
First copying reader's note: The table stands under a forest plot whose axis is labelled 'Mean IC50 ± 95% CI (nM)'; according to the description the IC50 values were measured in HEK-KOP cells.

Another data set can be described thus: Stability in cAMP buffer. To be noted: over 60 minutes. Type of data set: physicochemical. From the text: Select compounds were also screened for stability in cAMP buffer, to assess whether they degrade spontaneously in the cell assay environment, in the absence of cellular metabolic processes.

Chain of KOP (P41145 whole entry, looked up): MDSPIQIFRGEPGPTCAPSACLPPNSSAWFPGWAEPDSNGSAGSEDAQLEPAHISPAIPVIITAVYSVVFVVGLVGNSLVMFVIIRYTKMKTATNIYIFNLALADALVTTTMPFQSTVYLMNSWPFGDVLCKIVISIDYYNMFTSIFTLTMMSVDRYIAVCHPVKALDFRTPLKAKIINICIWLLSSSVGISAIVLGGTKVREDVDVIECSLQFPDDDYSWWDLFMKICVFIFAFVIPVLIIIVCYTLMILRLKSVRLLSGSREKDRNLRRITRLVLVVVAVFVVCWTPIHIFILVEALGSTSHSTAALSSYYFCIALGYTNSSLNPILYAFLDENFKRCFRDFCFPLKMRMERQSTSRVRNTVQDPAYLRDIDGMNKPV

In turn, `CC1(C)CNC(=O)C[C@H](C(=O)N[C@@H](CCCNC(=N)N)C(=O)N[C@@H](CCCNC(=N)N)C(N)=O)NC(=O)[C@H](Cc2ccccc2)NC(=O)CNC(=O)[C@@H](NC(=O)[C@@H](N)Cc2ccc(O)cc2)CSS1` [DP-7-11, c(Tyr-SSa-Gly-Phe-D(Asp)-Arg-Arg)] yielded an EC50 on DOP of over 10000 nM.
Turning to `CC1(C)CNC(=O)C[C@@H](NC(=O)[C@@H](N)Cc2ccc(O)cc2)C(=O)NCC(=O)N[C@@H](Cc2ccccc2)C(=O)N[C@H](C(=O)N[C@@H](CCCNC(=N)N)C(=O)N[C@@H](CCCNC(=N)N)C(N)=O)CSS1` [DP-7-12, c(Tyr-D(Asp)-Gly-Phe-SSa-Arg-Arg)] (H-Y[dD]GFCRR-NH2; linker 2-5 via NHCH2CMe2S), the half-life in data set [1] was under 0.01 min. The half-life at 100 uM in data set [2] was 206 min. The IC50 against KOP turned out to be 4.49 ± 1.59 nM. In addition, the “Degradation in cAMP assay buffer” value in “Stability in cAMP buffer” is recorded as “no degradation”.

One may read the EC50 as the midpoint of the concentration-response curve. A higher EC50 goes with a need for much substance. For orientation: IC50 means the concentration that gives 50% inhibition. Read a high IC50 as a need for much substance.
